Experiment [1] addresses expressed bovine cGB-PDE cDNA protein product (Bos taurus, UniProt Q28156). Briefly: cGMP phosphodiesterase activity of extracts of COS cells transfected with bovine cGB-PDE, in presence of PDE inhibitors. It is filed as biochemical.
Protocol: The reaction mixture was incubated for 10 minutes at 30° C., and then stopped by boiling. Next, 10 μl of 10 mg/ml Crotalus atrox venom (Sigma) was added followed by a 10 minute incubation at 30° C.
A further experiment has as its target cGB-PDE (Bos taurus, UniProt Q28156). In words: Metal dependence of cGB-PDE PDE activity. Type of experiment: biochemical. The protocol:
The catalytic domains of mammalian PDEs and a Drosophila PDE contain two tandem conserved sequences (HX3 HX24 26 E) that are typical Zn^2+-binding motifs in Zn^2+ hydrolases such as thermolysin (Vallee and Auld, Biochem., 29: 5647-5659 (1990)). cGB-PDE binds Zn^2+ in the presence of large excesses of Mg^2+, Mn^2+, Fe^2+, Fe^3+, Ca^2+ or Cd^2+. In the absence of added metal, cGB-PDE has a PDE activity that is approximately 20% of the maximum activity that occurs in the presence of 40 mM Mg^2+, and this basal activity is inhibited by 1,10-phenanthroline or EDTA. […] PDE activity is stimulated by addition of Zn^2+ (0.02-1 μM) or Co^2+([…]), but not by Fe^2+, Fe^3+, Ca^2+, Cd^2+, or Cu^2+. Zn increases the basal PDE activity up to 70% of the maximum stimulation produced by 40 mM Mg^2+. The stimulatory effect of Zn^2+ in these assays may be compromised by an inhibitory effect that is caused by Zn^2+ concentrations>1 μM. The Zn^2+-supported PDE activity and Zn^2+ binding by cGB-PDE occur at similar concentrations of Zn^2+ cGB-PDE thus appears to be a Zn^2+ hydrolase and Zn^2+ appears to play a critical role in the activity of the enzyme. See, Colbran et al., The FASEB J., 8: Abstract 2148 (Mar. 15, 1994).

For another experiment, the target named is T1, bovine cGB-PDE (Bos taurus, UniProt Q28156).
T1 construct: which contains the entire coding region of cGB-8; made in house; host or cells: COS-7 cells, whole-cell extract
In words: [3H]cGMP-binding assay of extracts of COS-7 cells transfected with pCDM8-cGB-PDE. As for the experimental part:
Cell extracts were assayed for [^3H]cGMP-binding activity in the absence or presence of 0.2 mM 3-isobutyl-1-methylaxanthine (IBMX) (Sigma), a competitive inhibitor of cGMP hydrolysis. The cGMP binding assay, modified from the assay described in Thomas I, supra, was conducted in a total volume of 80 μl. […] Assays were carried out in the absence and presence of 0.2 mM IBMX. The reaction was initiated by the addition of the cell extract, and was incubated for 60 minutes at 0° C. Filtration of the reaction mixtures was carried out as described in Thomas I, supra. Blanks were determined by parallel incubations with homogenization buffer replacing cell extracts, or with a 100-fold excess of unlabelled cGMP.
Results of the assay are set out in FIG. 7. […] The ability of IBMX to stimulate cGMP binding 2-5 fold is a distinctive property of the cGMP-binding phosphodisterases.
Results are presented in FIG. 8 wherein cGMP binding in the absence of unlabelled competitor was taken as 100% and each data point represents the average of three separate determinations.

In experiment [2] the target is native cGB-PDE and WT cGB-PDE (Bos taurus, UniProt Q28156). In words: cGMP-binding kinetics of native and recombinant wild type cGB-PDE. Set-up: species or system bovine.
Another experiment deals with D478A mutant cGB-PDE (Bos taurus, UniProt Q28156, D478A). Briefly: cGMP-binding kinetics of D478A mutant cGB-PDE. Set-up: species or system bovine.
A further experiment addresses T2, recombinant PDE5 (Mus musculus, UniProt Q8CG03).
T2 construct: made in house; host or cells: HEK 293 cells, transient transfection; lysate supernatant or Mono Q fractions
In words: cGMP saturation binding assay (Millipore filter binding). The note with it: 0.01-20 μM cGMP, IBMX present, 30 min on ice. The protocol:
Binding studies were conducted by the Millipore filter binding assay in a total volume of 40 μl containing binding buffer (50 mM Tris-HCl, pH 7.5, 2.0 mM EDTA, 1 mM DTT, 100 mM NaCl) and 0.1 mM IBMX in the presence of 0.01 -20 μM ^3H-cGMP. In some experiments an additional 30 min preincubation of recombinant PDE5 with monoclonal antibodies (mAb/P3B2 or mAb/P4D8) was performed before addition of cGMP. Following a 30 min incubation on ice, 1 ml of ice cold binding buffer was added to the assays. The samples were immediately filtered through a Millipore HAWP nitrocellulose membrane (pore size 0.45 μM, 24 mm diameter) and rinsed three times with ice cold binding buffer (10 ml each). The filters were dissolved in 5 ml of Filter Count™ (Packard Instrument) and counted in a liquid scintillation counter.
The cGMP saturation binding assay was employed (FIG. 14) using recombinant PDE5 without (filled squares) or with preincubation with monoclonal antibodies mAb/P3B2 (filled circles) or mAb/P4D4 (filled triangles) for 30 min on ice, to determine the Kd for cGMP binding. The binding assays were performed with 0.01-20 μM cGMP in the presence of […] for 30 min on ice. The specific binding (cpm) is calculated by subtraction of nonspecific binding from total binding. […] A linear scatchard plot of the cGMP binding data indicated one class of cGMP-binding sites. […]

Experiment [3] has as its target T3, recombinant mouse PDE5 (Mus musculus, UniProt Q8CG03).
T3 construct: made in house; host or cells: HEK 293 cells, transient transfection; lysate supernatant or Mono Q fractions
In words: PDE5 activity assay of recombinant mouse PDE5 expressed in HEK 293 cells. Type of experiment: biochemical. The note with it: for IC50: IC50 for sildenafil inhibition. The protocol:
Phosphodiesterase assays were carried out according to established procedures. All assays were performed for 5 min (unless otherwise indicated) at 30° C. using different concentrations of cGMP (0.1-10 μM) as substrates. Protein concentrations were determined by the Coomassie Plus protein assay (Pierce).
Recombinant mouse PDE5 was expressed in HEK 293 cells. […] The cells were lysed in a small volume of homogenization buffer in order to obtain a concentrated extract, and then the cell extract was preincubated with 50 μM cGMP on ice without PDE inhibitors (filled triangles, FIGS. 11A and 11B) or with 0.2 μM sildenafil (filled circles, FIG. 11B). At different time points aliquots were diluted 1/400-1/500, and different amounts of diluted extract (additional dilution 1/5-1/10) were used for PDE5 activity assayed at 0.1 μM cGMP for 5 min at 30° C. An additional portion of 50 μM cGMP was added to the preincubation mixture at 60 min after the start of preincubation as indicated by an arrow (open triangles, FIG. 11A). PDE5 activity was expressed as pmol/min/μg of protein. […] The percent of 50 μM cGMP hydrolysis at different time points was measured using the PDE5 activity assay.
To investigate this further, PDE5 was preincubated of with 50 μM cGMP on ice and an aliquot was diluted and assayed with either 0.1 μM, 1.0 μM or […] cGMP for 5 min at 30° C. Data are expressed as fold activation of PDE5 activity after preincubation with 50 μM cGMP (FIG. 12A).
PDE5 activity was measured at 0.1 μM (FIG. 16A), 1.0 μM (FIG. 16B) or 10 μM cGMP (FIG. 16C). It was analyzed without any treatments (filled squares), or after preincubation with 50 μM cGMP on ice (filled triangles), or after preincubation with mAb/P3B2 for 30 min on ice (filled circles). Treatment of PDE5 with mAb/P3B2 for 30 min on ice preceded preincubation with 50 μM cGMP (open circles). PDE5 activity was expressed as […].
Kinetic and inhibitory characteristics of activated PDE5. […] FIG. 18A depicts a Lineweaver-Burk double-reciprocal plot (0.1-10 μM cGMP) of activated (after preincubation with cGMP on ice) (filled triangles) PDE5 and mAb/P3B2 treated PDE5 (filled circles). PDE5 activity was expressed as pmol/min/μg of protein. […] PDE5 activities, assayed at each substrate concentration without sildenafil, were expressed as 100%. Km, Vmax and IC50 values were calculated using GraphPad Prism 2.0 C (GraphPad Software, San Diego, Calif.).

Experiment [4] deals with T3, recombinant mouse PDE5. Described as above. The following applies: assayed at 10 μM cGMP. It is filed as biochemical.
For another experiment, the target named is D289A mutant cGB-PDE (Bos taurus, UniProt Q28156, D289A). Briefly: cGMP-binding kinetics of D289A mutant cGB-PDE.
Setting [5] is: activated PDE5 (preincubated with 50 μM cGMP).

Where two headings read alike, the source gives them in different places.

Description for D289A mutant cGB-PDE: This curvilinearity may have been due to the presence of distinct high affinity (slow) and low affinity (fast) sites of cGMP binding.

Take `CCCOc1ccccc1-c1nc2nn[nH]c2c(=O)[nH]1`: the IC50 in experiment [1] was 2000 nM.
`c1cnc2c(c1)ccc1cccnc12` [1,10-phenanthroline]: the “effect on basal PDE activity in absence of added metal” value on cGB-PDE is “inhibited”.
Consider `O=C(O)CN(CCN(CC(=O)O)CC(=O)O)CC(=O)O` [EDTA], for which, at cGB-PDE, the “effect on basal PDE activity in absence of added metal” value is listed as “inhibited”.
For the compound `CC(C)Cn1c(=O)n(C)c(=O)c2[nH]cnc21` [IBMX, 3-isobutyl-1-methylaxanthine], at bovine cGB-PDE (0.2 mM IBMX, 1 μM [3H]cGMP), the “stimulation of cGMP binding” value was “approximately 1.8 fold”.
Turning to `Nc1nc2c(ncn2[C@@H]2O[C@@H]3COP(=O)(O)O[C@H]3[C@H]2O)c(=O)[nH]1` [cGMP], the “excess concentration of unlabelled competitor required to inhibit [3H]cGMP binding by 50%” value on bovine cGB-PDE (2.5 μM [3H]cGMP) was “Less than 10 fold higher concentrations”. Also, the Kd was around 2000 nM in experiment [2], around 500 nM at D478A mutant cGB-PDE, 120 nM on recombinant PDE5 and above 20000 nM on D289A mutant cGB-PDE (read-out: Kd of cGMP binding). The “t1/2 of single cGMP-dissociation rate” value on D478A mutant cGB-PDE turned out to be 2.8 h. Besides, the Km was 0.96 µM at recombinant mouse PDE5 [3] (setting [5]) and 4.6 µM at recombinant mouse PDE5 [3] (non-activated PDE5 (mAb/P3B2 treated), read-out: Km for cGMP). Besides, the Vmax on recombinant mouse PDE5 [3] (setting [5]) is on record as 27 pmol/min/μg of protein; at recombinant mouse PDE5 [3] (non-activated PDE5 (mAb/P3B2 treated)) it was 8.9 pmol/min/μg of protein. The “PDE5 activation after preincubation with 50 μM cGMP” value at recombinant mouse PDE5 [3] (assayed at 0.1 μM cGMP, 5 min 30° C., 15 min preincubation on ice) is reported as 10 times; at recombinant mouse PDE5 [3] (assayed at 1.0 μM cGMP), 2-3 times; on recombinant mouse PDE5 [4] it was “not detectable”. Further, on D289A mutant cGB-PDE, the “t1/2 of single rate of cGMP-association” value was 0.5 h.
For the compound `COc1ccc(C2CNC(=O)C2)cc1OC1CCCC1` (stereo not drawn) [rolipram], in experiment [1], the IC50 is above 300000 nM.
`CCCc1nn(C)c2c(=O)[nH]c(-c3cc(S(=O)(=O)N4CCN(C)CC4)ccc3OCC)nc12` [sildenafil]: the “time PDE5 activation was sustained during preincubation with 50 μM cGMP” value at recombinant mouse PDE5 [3] (0.2 μM sildenafil in preincubation mixture) is “at least 90 min”. For the same compound, the IC50 worked out at 0.6 nM on recombinant mouse PDE5 [3] (activated PDE5, assayed at 0.1 μM cGMP); 1.2 nM on recombinant mouse PDE5 [3] (activated PDE5, assayed at 1.0 μM cGMP); 2.1 nM on recombinant mouse PDE5 [3] (control PDE5, assayed at 0.1 μM cGMP); 4.9 nM on recombinant mouse PDE5 [3] (control PDE5, assayed at 1.0 μM cGMP).
